Results: patent US9150528B2, “Compound having detrusor muscle-contracting activity and urethral sphincter muscle-relaxing activity” (ONO PHARMACEUTICAL CO., LTD., priority 2009, dated 2015)

What was measured:
normal rats = assay: Blood pressures and heart rates in normal rats; type: in vivo, rat; conditions: oral
Method: The blood pressures and heart rates of female Wistar rats were measured in accordance with the following procedure. On the day of measurement, indwelling of catheters for blood pressure•heart rate measurement was carried out under anesthesia with ether. The back of the neck of each rat was incised; a feeding catheter (Atom Medical Corporation) filled with heparinized physiological saline was introduced from the back of the neck; the catheter was inserted into the common carotid artery; and the surgical incision was closed. The measurements were carried out in a Bollmann cage under the conscious state, and the evaluations were carried out after confirming that the individual parameters were stabilized. After confirming the stabilization of blood pressure and heart rate, the test compound which was prepared using injectable water containing equimolar NaOH was orally administered at a dose of 5 mL/kg.
The catheter drawn from the back of the neck was connected to a pressure transducer (DX-200, NIHON KOHDEN CORP.), and the blood pressures and heart rates were measured using an amplifier for pressure measurement (Gould Instrument). The blood pressures and heart rates were recorded using a recorder (LINEARCORDERWR3320, GRAPHTEC). For each individual, rates of increase and decrease in average blood pressure and heart rate before administration and 30, 60, 120, and 180 min after administration were calculated with respect to the values of each individual before administration. Changes in blood pressure and heart rate before and after administration of the test compound were evaluated.

[1] = test system: human lyophilized liver cells; assay: Stability evaluation in lyophilized liver cells; type: in vitro ADME; conditions: 37° C.
Method: KHEM5100 medium which includes human lyophilized liver cells after dissolving (final concentration of living cells: 1×10^6 cells/mL) and the test compound (acetonitrile or methanol solution, final concentration≦1%) was incubated at 37° C. Immediately after reaction and with the passage of reaction time, some portions were sampled from the medium. The concentrations of the test compound in the samples were measured by LC/MS/MS. The residual rate of the test compound relative to immediately after reaction was calculated by the following equation: Residual rate=the concentration of the test compound in the sample after reaction/the concentration of the test compound in the sample immediately after reaction×100(%) The residual rates were plotted on a single logarithmic scale against reaction time to calculate loss rate constants. The test was repeated (n=2), and the obtained values were averaged.

bladder detrusor = assay: Contraction of isolated rat bladder strip specimens (Magnus system), KCl-induced contraction; type: cell-based; conditions: for Contractility of the bladder detrusor according to the compound concentration treated: rat bladder strip
Method: (§1) Rats were anesthetized with pentobarbital, followed by abdominal incision to remove the bladders and the urethras. The bladder bodies were cut in the longitudinal direction to prepare strip specimens with a size of about 10×3 mm. Additionally, each of the urethras was also cut in the longitudinal direction to prepare specimens with a size of about 10×3 mm. The prepared specimens were suspended in Krebs buffer (37° C., 5 mL), which was aerated with a mixed gas of 95% O2 and 5% CO2. The tension values of the specimens were measured using a Magnus system equipped with an isometric transducer and an amplifier, and the measured values were recorded on a computer via a data collection system.
The specimens were suspended with a load of about 0.5 g. More than 1 hr later, potassium chloride (100 mmol/L) was added and the maximal contraction response was observed. After washing with Krebs buffer, the specimens were suspended with a load of about 0.5 g for stabilization. A potassium chloride solution (7.5 mmol/L) was added to induce the contraction of the specimens. After the contraction-inducing response was stabilized, the test compound was added in a cumulative manner and the response was observed before and after the treatment with the drug.

urethral sphincter = assay: Relaxation of isolated rat urethra specimens (Magnus system), phenylephrine-induced contraction; type: cell-based; conditions: for Contractility of the urethral sphincter according to the compound concentration treated: rat urethra specimen
Method: as §1
The specimens were suspended with a load of about 0.5 g. More than 1 hr later, potassium chloride (100 mmol/L) was added to the suspension and the maximal contraction response was observed. After washing with Krebs buffer, the specimens were suspended with a load of about 0.5 g for stabilization. Thereafter, a phenylephrine (100 μmol/L) was added to the suspension to induce the contraction of the specimens. After stabilization of the contraction-inducing response, the test compound was added in a cumulative manner and the response was observed before and after the treatment of the drug.

cynomolgus monkeys = assay: Effects on cardiac function in anesthetized cynomolgus monkeys; type: in vivo, cynomolgus monkey; conditions: continuous intravenous 30 min
Method: Cynomolgus monkeys were anesthetized with pentobarbital (at an initial dose of 20-30 mg/kg by intravenous administration; at a dose of 4-5 mg/kg/hr by intravenous continuous administration). A tracheal tube was inserted and experiments were carried out under artificial respiration (fresh air+pure oxygen, ventilatory volume: 10-15 mL/kg, ventilation frequency: 10-15 times/min). In the right lying position, the left thorax was opened between the fourth and fifth intercostal spaces. The […] (the origin of the left anterior descending artery or circumflex branch) and the origin of the ascending main artery were peeled off and transducers for blood flow measurement were located there. The blood flow rates were measured using an electronic blood flowmeter or an ultrasonic blood flowmeter. The blood pressures were measured using a pressure transducer in a state where a catheter was inserted into the right femoral artery. The left ventricular internal pressure was measured in a state where a catheter was inserted from the left carotid artery into the left ventricle. The electrocardiogram was measured using needle electrodes installed in the right armpit and the left thorax. After catheters for administration were inserted into the right and left cephalic veins and femoral veins, the test compound, pentobarbital (under anesthesia) or an aqueous solution (SOLITA T3 containing 1.2% NaHCO3) were administered therethrough. The test compound was continuously administered intravenously 30 min using a continuous infusion system. The blood pressure, left ventricular internal pressure, blood flow rate through the coronary artery and electrocardiogram data were simultaneously inputted to a PowerLab system (LabChart6, AD instruments) to measure/calculate average blood pressure, heart rate, average blood flow rate through the coronary artery, beat volume, stroke volume (beat volume/heart rate), maximum first deviation of the left ventricular internal pressure, total peripheral blood vessel resistance (average blood pressure/beat volume), cardiac performance (average blood pressure x beat volume) and double product (systolic arterial pressure x heart rate), which is indicative of myocardial oxygen consumption.
The averages of all evaluation parameters for 1 min were obtained before administration, immediately after administration, and 10 min, 20 min and 30 min after administration, and changes of the averages relative to the value measured before administration which is defined as 100% were calculated.

Residual rate ([1]; Reaction time 0 h): 100%
Residual rate ([1]; Reaction time 0.5 h): 111%
Residual rate ([1]; Reaction time 1 h): 101%
Residual rate ([1]; Reaction time 1 h, listed as compound 17): 100%
Residual rate ([1]; Reaction time 2 h): 82.2%
Residual rate ([1]; Reaction time 2 h, listed as compound 17): ≥ 80%
cardiac performance (cynomolgus monkeys; 30 ng/kg/min): did not affect
double product (cynomolgus monkeys; 30 ng/kg/min): did not affect
cardiac performance (cynomolgus monkeys; 100 ng/kg/min): did not affect
double product (cynomolgus monkeys; 100 ng/kg/min): did not affect
other cardiac function parameters, including the blood flow rate through the coronary artery (cynomolgus monkeys): did not affect
Structure (SMILES): C[C@@](O)(C/C=C/[C@H]1CCC(=O)[C@@H]1CCSc1nc(C(=O)O)cs1)CCC(F)=C(F)F [Compound 17, 2-[(2-{(1R,5R)-2-oxo-5-[(1E,4S)-7,8,8-trifluoro-4-hydroxy-4-methyl-1,7-octadien-1-yl]cyclopentyl}ethyl)thio]-1,3-thiazole-4-carboxylic acid]
effect on the blood pressure (normal rats; 0.3 mg/kg): no effect
effect on the heart rate (normal rats; 0.3 mg/kg): no effect
effect on the blood pressure (normal rats; 1 mg/kg): no effect
Contractility of the bladder detrusor according to the compound concentration treated (bladder detrusor; 0 nmol/L): 3 % of 7.5 mmol/L KCl
Contractility of the bladder detrusor according to the compound concentration treated (bladder detrusor; 1 nmol/L): −2 % of 7.5 mmol/L KCl
Contractility of the bladder detrusor according to the compound concentration treated (bladder detrusor; 10 nmol/L): 23 % of 7.5 mmol/L KCl
Contractility of the bladder detrusor according to the compound concentration treated (bladder detrusor; 100 nmol/L): 100 % of 7.5 mmol/L KCl
Contractility of the bladder detrusor according to the compound concentration treated (bladder detrusor; 1 μmol/L): 180 % of 7.5 mmol/L KCl
Contractility of the bladder detrusor according to the compound concentration treated (bladder detrusor; 10 μmol/L): 259 % of 7.5 mmol/L KCl
effect on the bladder detrusor (bladder detrusor; summary in words of Table 1): contracted the bladder detrusor
Contractility of the urethral sphincter according to the compound concentration treated (urethral sphincter; 0 nmol/L): 5 % of phenylephrine
Contractility of the urethral sphincter according to the compound concentration treated (urethral sphincter; 1 nmol/L): −2 % of phenylephrine
Contractility of the urethral sphincter according to the compound concentration treated (urethral sphincter; 10 nmol/L): −9 % of phenylephrine
Contractility of the urethral sphincter according to the compound concentration treated (urethral sphincter; 100 nmol/L): −36 % of phenylephrine
Contractility of the urethral sphincter according to the compound concentration treated (urethral sphincter; 1 μmol/L): −83 % of phenylephrine
Contractility of the urethral sphincter according to the compound concentration treated (urethral sphincter; 10 μmol/L): −89 % of phenylephrine
effect on the urethral sphincter (urethral sphincter; summary in words of Table 2): relaxed the urethral sphincter
